Measured values published in patent US10815275B2, “Antimicrobial peptoids with improved selectivity and use thereof” (priority 2018, dated 2020).
No end group written: not given here.

Key:
[1] = Metabolic stability in human liver S9 fraction, HPLC; type: in vitro ADME; conditions: human, s9, pH 7.4
Protocol: In order to identify metabolic stability of the peptoids synthesized in Preparation Example 1, such peptoids were subjected to enzymatic reaction using S9 fraction which is a mixture of human liver tissue-extracted metabolic enzymes. Thereafter, for the reaction products, metabolites were quantitated using HPLC.
Specifically, Peptoid NOS. 1 and 4, and Pexiganan as a peptide control (40 μL each, 100 μM) were treated with […], 3.3 mM MgCl2, and 1.3 mM NADPH buffer (306 μL, pH=7.4), to prepare respective samples. The respective samples were treated with S9 fraction (2 μL, 0.1 mg/mL) and then incubated at a temperature of 37° C. When 0, 1, 4, and 24 hours had elapsed after treatment with the S9 fraction, 40 μL of each sample was taken out, and acetonitrile containing the same amount of 0.1% trifluoroacetic acid was used to stop activity of enzymes contained in the S9 fraction. Thereafter, proteins precipitated with acetonitrile were centrifuged at a condition of 1,000×g for 10 minutes at a temperature of 4° C. Then, supernatant was analyzed by HPLC to identify an amount of the remaining peptoid which had not been degraded by the enzymes in the S9 fraction.

red blood cells = experiment: Hemolytic activity on red blood cells; type: cell-based, mouse
Procedure, shortened: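 Washed mouse red blood cells (10% v/v in PBS, pH 7.4) incubated with peptoids for 1 h at 37 °C; released haemoglobin read at 540 nm. % hemolysis normalised to 0.1% Triton X-100 (100%) and PBS blank; HD10, HD50 derived, Hmax taken at 200 μM top concentration.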

MRCS cell line = experiment: in vitro; type: cell-based; conditions: concentration indicating 50% survival, 24 h, MTS; read-out: LC50 (the source's name)
Protocol: In order to determine whether the peptoids were cytotoxic against human cell lines, […] cell line (Korean Cell Line Bank) which is a human lung cell line was cultured in a DMEM (Dulbecco's modified Eagle's medium) culture solution containing 10% (v/v) fetal bovine serum (FBS) at 5% CO2 and a temperature of 37° C. 100 μL of DMEM medium was dispensed into each well of a 96-well microtiter plate so that the number of cells was 1.3×10^4, and then incubated overnight at a temperature of 37° C. in a 5% CO2 incubator. In this case, a DMEM medium was used as a negative control. Thereafter, the peptoid which is 2-fold serially diluted using sterile water was added to each well, and then incubated for 24 hours.
After incubation, 20 μL of an MTS solution [3-(4,5-dimethylthiazol-2-yl)-5-(3-carboxymethoxyphenyl)-2-(4-sulfophenyl)-2H-tetrazolium, inner salt; MTS] was added thereto and incubated at a temperature of 37° C. for 4 hours. Thereafter, % survival was calculated by measuring absorbance at a wavelength of 490 nm using an ELISA reader. The % survival was calculated as a percentage obtained by dividing the absorbance value for a well-treated with the peptoid by the absorbance value for a well containing control cells which had not been treated with the peptoid.

B. subtilis = type: cell-based; conditions: 18 h
Protocol: In order to measure antimicrobial activity of the peptoids, Gram-positive B. subtilis or Gram-negative E. coli strain DH5α was treated with Peptoid NOS. 1, 18 to 23, and the peptide Pexiganan, and minimum inhibitory concentrations were measured. Peptoid NOS. 1 and 2, and the peptide Pexiganan are already known antimicrobial peptoids and peptides, and were used for the purpose of making a comparison with novel peptoids in terms of antimicrobial activity.
Specifically, B. subtilis or E. coli DHS a was inoculated into LB liquid medium, and cultured at a temperature of 37° C. for 18 hours. Thereafter, the bacteria were diluted with LB medium so that each bacterial number was 2×10^5 colony-forming units (CFU) per 1 mL, and dispensed into 96-well microtiter plates at 100 μL each. The peptoid, which is 2-fold serially diluted using sterile water, was added to each well at 100 μL each. The plates were incubated at a temperature of 37° C. for 18 hours.
Thereafter, absorbance was measured at a wavelength of 600 nm using a microplate reader (Bio-Rad). The lowest peptoid concentration that completely suppresses growth of microorganisms was measured by a minimum inhibitory concentration (MIC), and the measurement results are shown in Table 12 below. Each of the minimum inhibitory concentration values was calculated as an average value of numerical values obtained through three independent experiments.

Work on “GIGKFLKKAKKFGKAFVKILKK-NH2 [Pexiganan, reference compound]” yielded a remaining at 24 h, 11.5 μM [1] of less than 1%, an HD10 (red blood cells) of 113.4 and an HD50 (red blood cells) greater than 200. The CC50 (MRCS cell line) was 21.2 µM and the “MIC B. subtilis” value (B. subtilis) was 0.4 µM.
